The subject of assay [1] is MDA-MB-231, Hs578T, and MCF-7 breast cancer cells. Kind of assay: proliferation and drug sensitivity of breast cancer cells after HERV-K KD. The settings on record: for sensitivity of breast cancer cells toward drug: MCF-7 and Hs578T stably transduced with shRNAenv vs shRNAc or parent cells. In kind it is cell-based, human. The source says: Here, the inventors further determined the effects of HERV-K env gene KD in breast cancer cells treated with breast cancer chemotherapy drugs.

The test system of assay [2] is MCF-7 and Hs578T breast cancer cell lines. Kind of assay: cell cycle distribution by FACS. The class given is cell-based, human. The settings on record: Hs578T cells, especially in the shRNAenv cells. In general terms: Flow cytometry measures light scatter and fluorescence of single cells or particles in a stream.
Assay [3] concerns MCF-7, HS578T, MDA-MB-231 cells. Kind of assay: transwell migration and invasion. In kind it is cell-based, human. Set-up: dose or concentration left out as unconfirmed.
Description: The effects of KD of HERV-K env on migration and invasion were investigated using transwell plates. After transwell plates (8 μm) were rehydrated for 2 hours, 2.5×10^4 cells were seeded into the transwell and cultured. The transwell was then removed and the cells that had migrated into the lower chamber were counted. For the invasion assay, transwells were coated with Matrigel, and cells remaining in the upper chamber were removed with a cotton swab. The invaded cells on the reverse side of the Matrigel were counted under a light microscope (40× magnification) after the cells were fixed with methanol and stained with Giemsa. Ten random fields were counted. The average number of invaded cells per field was presented as mean±SD (n=10 fields). Triplicate assays were performed for each experiment.
Assay [4] deals with breast cancer cell lines. The assay is described as follows: expression of HERV-K and signaling proteins after H2O2 or paclitaxel. The class given is cell-based, human. The settings on record: for expression of signaling proteins by immunoblot: paclitaxel (Tax, 0.1 μM) or H2O2 (5 μM or 10 μM), vs parent cells. (In general: A western blot detects proteins with antibodies after separation by electrophoresis.)

In assay [5] the test system is breast cancer cell lines.
Assay [6] deals with HCT15, SW48 and HCT116 cells. Kind of assay: HERV-K expression in CRC cell lines. The class given is cell-based. The text has this: The expression of HERV-K was detected in several CRC cell lines and tissues, but not in benign colon tissues. […] The forced overexpression of HERV-K with these agents that induce expression of HERV-K by innate immune response (Poly I:C treatment) or LTR hypomethylation (5-Aza) would provoke the cancer cells to increase production of a target that would make them more susceptible to targeted therapy to include targeted immunotherapy.

The test system of another assay is MDA-MB-231 cells. The assay is described as follows: Live/dead cell viability assay. The class given is cell-based, human. The settings on record: 10 μg/ml, sixteen hours. The procedure:
Live/dead cell viability assays were used to assess induction of cell death after anti-HERV-K antibody treatment. MDA-MB-231 cells were seeded overnight in 24-well plates. Cells were treated with various antibodies (10 μg/ml) and incubated for sixteen hours at 37C in a cell culture incubator. Calcein Am (4 μl/10 ml media) and Eth-D1 (20 μl/10 ml media), 200 μl per well, were then added and cells were incubated for thirty minutes at room temperature. EthD-1 penetrates cells with membrane damage and binds to nucleic acids to produce red fluorescence in dead cells. Live cells (green color; Calcein Am) and putative dead cells (red color; EthD-1) were identified using the co-stained Live/Dead Viability Assay. Human IgG or mouse IgG were used control.

The subject of another assay is HERV-K env protein. Kind of assay: antibody internalization. In kind it is cell-based. The following applies: 37° C., 0, 5, 30, and 45 minutes; permeabilized cells. The method, then: To determine antibody internalization of humanized and murine antibodies, cells were incubated with HUM1 or m6H5 at 37° C. for different time intervals (0, 5, 30, and 45 minutes). At each time point, cells were fixed. Half of the cells were permeabilized and half were not permeabilized. Anti-human IgG 488 or anti-mouse IgG 488 was used to detect the percentages of antibody-bound HERV-K env protein that remained on the cell surface in the cells that were not permeabilized. A reduced surface expression of HERV-K positive cells was observed. The internalization of rate was determined in the cells that were permeabilized. The equation for the percentage of internalization at each point was 100−(% label at time 0).

A further assay has as its system 4T1pLVXKenv tumors. Kind of assay: 4T1pLVXKenv combination treatment, Treg cells. The settings on record: pLVXKenv vs pLVX; 6H5 once, IL2 for five days. The class given is in vivo, mouse.
For assay [7], the system named is ERVK6 and HERV-K envelope surface fusion protein. The assay is described as follows: immunoblot on HERV-K Env surface proteins. The class given is binding, human.
Assay [8] deals with HERV-K envelope surface fusion protein. Kind of assay: ELISA binding to HERV-K envelope surface fusion protein. Set-up: species or system human. The source says:
An ELISA assay was used to compare antigen binding sensitivity and specificity of hu6H5 vs. m6H5.
For orientation: An ELISA detects its analyte on a solid surface through an enzyme-linked reagent.

These results are taken from US20250145693A1, “HERV-K ANTIBODY, CELL, VACCINE, AND DRUG THERAPEUTICS” (priority 2021, published 2025).

Description for 4T1pLVXKenv tumors: BALB/c mice were inoculated with 3×10^5 4T1pLVXKenv or 4T1pLVX cells on day 0. These mice were then treated: FIG. 23B with CpG (1.24 nmol), HERV-K SU protein (10 μg, 20 μg, and 20 μg), or CpG+ HERV-K SU protein on days 6, 13, and 19. Tumor weights were compared at week 4 post tumor cell inoculation; (FIG. 23C) with Aza (0.5 mg/kg) daily for five days in two weekly cycles, anti-PD-1 (200 μg per mouse every four days; four treatments), or Aza+anti-PD-1. Mice treated with PBS were used as controls, and tumor weights were compared among groups; and (FIG. 23D) with anti-HERV-K antibody (6H5; once) and with IL2 (for five days).

For the molecule `COc1cccc2c1C(=O)c1c(O)c3c(c(O)c1C2=O)C[C@@](O)(C(=O)CO)C[C@@H]3O[C@H]1C[C@H](N)[C@H](O)[C@H](C)O1` [doxorubicin], the “sensitivity of breast cancer cells toward drug” value in [1] is listed as “Enhanced sensitivity”.

For `CC(=O)O[C@H]1C(=O)[C@@]2(C)[C@H]([C@H](OC(=O)c3ccccc3)[C@]3(O)C[C@H](OC(=O)[C@H](O)[C@@H](NC(=O)c4ccccc4)c4ccccc4)C(C)=C1C3(C)C)[C@]1(OC(C)=O)CO[C@@H]1C[C@@H]2O` [paclitaxel], the cell cycle arrest result in assay [2] was “G2 arrest”. In [3], the migration and invasion entry is “Significantly reduced migration and invasion”. The “expression of signaling proteins by immunoblot” value with breast cancer cell lines [4] is “increased expression of the breast cancer relevant signaling proteins HIF-1α, HERV-K, p-RSK, p-ERK, ERK, and Ras”. Also, the “sensitivity of breast cancer cells toward drug” value in assay [1] is “Enhanced sensitivity”. For the same molecule, in [1] (cells with HERV-K env KD by shRNAenv vs parent cells or shRNAc), the cell proliferation result was “Significantly reduced cell proliferation”.

As for `OO` [H2O2, Hydrogen Peroxide], the “effect on shRNAenv-induced block in expression” value in the assay with breast cancer cell lines [4] (5 μM, HERV-K KD cells) is “reversed the shRNAenv-induced block in expression of HERV-K, HIF-1α, P-RSK, and P-ERK in a time-dependent manner”. Also, the “expression at elevated concentrations” value with breast cancer cell lines [4] (25 μM and 50 μM) is “decreased expression of HERV-K and corresponding decreased HIF-1a and Ras/ERK signaling”. The “protein expression at graded concentrations” value in the assay on breast cancer cell lines [4] (1-50 μM, three breast cancer cell lines) was “enhanced expression of HERV-K, Ras, p-ERK, and HIF-1a proteins at H2O2 concentrations of 5 μM and 10 μM”. In addition, the “expression of HERV-K mRNA” value in the assay on breast cancer cell lines [4] (5 M, 0 hours to 48 hours, three breast cancer cell lines) is reported as “elevated expression of HERV-K mRNA”. The “expression of HERV-K, p-MEK, and p-ERK by immunoblot” value with breast cancer cell lines [4] (18 hours) was “enhanced expression of HERV-K, p-MEK, and p-ERK”. In addition, in the assay on breast cancer cell lines [4] (MDA-MB-231 cells), the “expression of EMT markers” value is “Increased expression of EMT markers including N-cadherin, vimentin, and Slug, and decreased expression of E-Cadherin”. In the assay with breast cancer cell lines [4], the “expression of signaling proteins by immunoblot” value is “increased expression of the breast cancer relevant signaling proteins HIF-1α, HERV-K, p-RSK, p-ERK, ERK, and Ras”. For the same molecule, the cell proliferation entry in the assay with breast cancer cell lines [5] (5 μM, after 96 hours) is “Significantly increased cell proliferation”. The migration result in the assay with breast cancer cell lines [5] (after 48 hours for MDA-MB-231 and after 72 hours for MCF-7) was “increased migration”.

Poly I:C: the “expression of HERV-K” value in [6] is given as “Increased expression of HERV-K”.

Turning to `Nc1ncn([C@@H]2O[C@H](CO)[C@@H](O)[C@H]2O)c(=O)n1` [5-Azacytidine], in assay [6], the “expression of HERV-K” value was “Increased expression of HERV-K”.

B1: m6H5: murine anti-HERV-K monoclonal antibody (antibody, V domains shown)
VH: QVKLQQSGPDLVKPGASVKISCKASGYSFTGYYMHWVKQSHGKSLEWIGRVNPNSGGTSYNQKFKDKAILTVDKSSSTAYMELRSLTSEDSAVYYCARSKGNYFYAMDYWGQGTTVTVSS
VL: DIELTQSPASLAVSLGQRATISCRASESVDSHGTSFMHWYQQKPGQPPKFLIYRASNLESGIPARFSGSGSRTDFTLTINPVETDDVAIYYCQQSNEDPPTFGGGTKLEIK
Regarding B1, the “dead cells (red fluorescence, EthD-1)” value with MDA-MB-231 cells is on record as “red fluorescent cells were observed”. For the same molecule, the “internalized HERV-K positive cells” value in the assay on HERV-K env protein is “increased expression of internalized HERV-K positive cells”. Further, in the assay with 4T1pLVXKenv tumors, the “T regulatory (Treg) cells” value is “Significantly decreased T regulatory (Treg) cells”. Further, in assay [7], the “binding by immunoblot to two HERV-K Env surface proteins” value is given as “shown by immunoblot to bind”. Also, the “binding detected by the inventors using ELISA or Western blot assays” value in assay [8] is reported as “readily detected”.
